According to patent US20230355647A1, “Marker for determining anti-cancer effects of mitochondrial oxidative phosphorylation pathway inhibitor” (NANJING SHIJIANG MEDICINE TECHNOLOGY CO., LTD, priority 2020, published 2023):

Legend:
NCI-H82 = experiment: Cell viability (CellTiter-Glo), NCI-H82; assay type: cell-based; conditions: Homo sapiens; NCI-H82 cell line, 3-4 days of culture
Protocol: (§1) Cell viability was detected using the Promega CellTiter-Glo kit, the kit reflected cell viability by directly measuring intracellular ATP content. The inhibitory effect (IC50 value) of Gboxin, a mitochondrial oxidative phosphorylation pathway inhibitor, on different tumor cell lines was tested in the Example. The name, source, and culture condition of each tumor cell line were as follows: Cell line NCI-H82 (ATCC, No. HTB-175) was cultured in 10% fetal bovine serum-containing RPMI1640 medium (+P/S). […] Cell viability was detected using the Promega CellTiter-Glo kit, the kit reflected cell viability by directly measuring intracellular ATP content.

SF126 = experiment: Cell viability (CellTiter-Glo), SF126; assay type: cell-based; conditions: Homo sapiens, SF-126; SF126 cell line, 3-4 days of culture
Protocol: as §1, with “SF126 (JCRB,” for “NCI-H82 (ATCC,”, “IFO50286)” for “HTB-175)”, “EMEM” for “RPMI1640”

MDA-MB-453 = experiment: Cell viability (CellTiter-Glo), MDA-MB-453; assay type: cell-based; conditions: Homo sapiens; MDA-MB-453 cell line, 3-4 days of culture
Protocol: as §1, with “MDA-MB-453” for “NCI-H82”, “HTB-131)” for “HTB-175)”, “Leibovitz's L-15” for “RPMI1640”

[1] = system: mitochondrial oxidative phosphorylation pathway; experiment: Oxygen consumption of NCI-H82 cell, Seahorse XFe metabolic analyzer; assay type: cell-based, human; conditions: detection within 0.5 h, compared with control group, FIG. 1 (n=3)
Description: The oxygen was mainly consumed by mitochondrial oxidative phosphorylation pathway in the cell, thus the determination of oxygen consumption rate (OCR) of mitochondria could directly reflect the activity of mitochondrial oxidative phosphorylation pathway. The oxygen consumption of NCI-H82 cell in the presence or absence of Oligomycin A, Gboxin, S-Gboxin and IACS-010759, mitochondrial oxidative phosphorylation pathway inhibitors, was detected using Seahorse XFe metabolic analyzer in the present Example. NCI-H82 cell (ATCC, No. […] The control group in absence of mitochondrial oxidative phosphorylation pathway inhibitor was set. The detection of cell oxygen consumption was finished within 0.5 h.

[2] = system: brain tumors and acute myeloid leukemia; conditions: study published in Nature Medicine (2018); cited from earlier work
786-O = experiment: Cell viability (CellTiter-Glo), 786-O; assay type: cell-based; conditions: Homo sapiens, 786-0; 786-O cell line, 3-4 days of culture
Protocol: as §1, with “786-O” for “NCI-H82”, “CRL-1932)” for “HTB-175)”

G-401 = experiment: Cell viability (CellTiter-Glo), G-401; assay type: cell-based; conditions: Homo sapiens; G-401 cell line, 3-4 days of culture
Protocol: as §1, with “G-401” for “NCI-H82”, “CRL-1441)” for “HTB-175)”, “McCoy's 5a” for “RPMI1640”

GB-1 = experiment: Cell viability (CellTiter-Glo), GB-1; assay type: cell-based; conditions: Homo sapiens; GB-1 cell line, 3-4 days of culture
Protocol: Cell viability was detected using the Promega CellTiter-Glo kit, the kit reflected cell viability by directly measuring intracellular ATP content. The inhibitory effect (IC50 value) of Gboxin, a mitochondrial oxidative phosphorylation pathway inhibitor, on different tumor cell lines was tested in the Example. The name, source, and culture condition of each tumor cell line were as follows:
Cell line GB-1 (JCRB, No. IFO50489) was cultured in 10% fetal bovine serum-containing DMEM medium (+P/S).
The above tumor cells were cultured in the relevant medium (+P/S), and incubated for 3 h, then the gradient diluted Gboxin was added, and IC50 (50% inhibiting concentration) was measured after 3-4 days of culture.
Cell viability was detected using the Promega CellTiter-Glo kit, the kit reflected cell viability by directly measuring intracellular ATP content. In this experiment, the IC50 values of Oligomycin A or IACS-010759, a mitochondrial oxidative phosphorylation pathway inhibitor, on different tumor cells was determined.
The different tumor cells were cultured in the relevant medium (+P/S) as shown in Example 2, and incubated for 3 h, then the gradient diluted Oligomycin A or IACS-010759 was added respectively, and IC50 (50% inhibiting concentration) of Oligomycin A or IACS-010759 on different tumor cells was measured after 3-4 days of culture.

WSU-DLCL2 = experiment: Cell viability (CellTiter-Glo), WSU-DLCL2; assay type: cell-based; conditions: Homo sapiens, WSUDLCL2; WSU-DLCL2 cell line, 3-4 days of culture
Protocol: as §1, with “WSU-DLCL2 (DSMZ,” for “NCI-H82 (ATCC,”, “ACC-575)” for “HTB-175)”

CFPAC-1 = experiment: Cell viability (CellTiter-Glo), CFPAC-1; assay type: cell-based; conditions: Homo sapiens; CFPAC-1 cell line, 3-4 days of culture
Protocol: as §1, with “CFPAC-1” for “NCI-H82”, “CRL-1918)” for “HTB-175)”, “IMDM” for “RPMI1640”

SW48 = experiment: Cell viability (CellTiter-Glo), SW48; assay type: cell-based; conditions: Homo sapiens; SW48 cell line, 3-4 days of culture
Protocol: as §1, with “SW48” for “NCI-H82”, “CCL-231)” for “HTB-175)”, “Leibovitz's L-15” for “RPMI1640”

NCI-H82-NNMT^ov tumor = experiment: Subcutaneous NCI-H82-NNMT^ov tumor-bearing nude mice; assay type: in vivo; conditions: nude mice inoculated with NCI-H82-NNMT^ov; 10 mg/kg/day intraperitoneally; compared with effect on NCI-H82 tumor; FIG. 26
Description: (§2) To verify whether cells sensitive to mitochondrial oxidative phosphorylation pathway […] still maintained the sensitivity to oxidative phosphorylation pathway inhibitors in vivo, S-Gboxin was used to test the effectiveness in tumor-bearing mice subcutaneously inoculated with sensitive cells (NCI-H82) and insensitive cells (CFPAC-1).
(§3) 5×10^6 of NCI-H82, NCI-H82-NNMT^ov (inserting the NNMT gene into NCI-H82 cell using a viral vector to overexpress NNMT protein) and CFPAC-1 tumors were subcutaneously inoculated in nude mice to establish tumor-bearing mice. Each group of tumor-bearing mice was injected intraperitoneally with the S-Gboxin (a mitochondrial oxidative phosphorylation pathway inhibition) at a dose of 10 mg/kg/day, the inhibition effect of S-Gboxin on the tumor was investigated. The mice in control group was injected intraperitoneally with solvent vehicle in the same method, and the tumor volume was calculated as follows: tumor volume=½ length×width 2. The experiment result was shown in FIG. 25, FIG. 26, and FIG. 27.

NCI-H82 tumor = experiment: Subcutaneous NCI-H82 tumor-bearing nude mice; assay type: in vivo; conditions: nude mice inoculated with NCI-H82; 10 mg/kg/day intraperitoneally; vs solvent vehicle; FIG. 25
Description: as §2, §3

CFPAC-1 tumor = experiment: Subcutaneous CFPAC-1 tumor-bearing nude mice; assay type: in vivo; conditions: nude mice inoculated with CFPAC-1; 10 mg/kg/day intraperitoneally; vs solvent vehicle; FIG. 27
Description: as §2, §3

Cc1nc(-c2nc(-c3ccc(OC(F)(F)F)cc3)no2)nn1Cc1cccc(N2CCC(S(C)(=O)=O)CC2)c1 [IACS-010759]
IC50 (NCI-H82): 0.168 µM | IC50 (SF126): > 15 µM | IC50 (MDA-MB-453): < 0.01 µM | oxygen consumption of NCI-H82 cells ([1]; 1 μM inhibitor): significantly inhibit | inhibitory effect on brain tumors and acute myeloid leukemia [2]: excellent inhibitory effect | IC50 (786-O): > 50 µM | IC50 (G-401): 1.48 µM | IC50 (GB-1): > 15 µM | IC50 (WSU-DLCL2): 3.56 µM | IC50 (CFPAC-1): 55.7 µM | IC50 (SW48): < 0.01 µM

CC(C)[C@@H]1CC[C@@H](C)C[C@H]1OC(=O)Cn1c(-c2cccc(C(F)(F)F)c2)[n+](C)c2ccccc21.[I-] [S-Gboxin]
inhibitory effect on subcutaneous tumor (tumor volume) (NCI-H82-NNMT^ov tumor): significantly weaker | oxygen consumption of NCI-H82 cells ([1]; 5 μM inhibitor): significantly inhibit | inhibition of subcutaneous tumor (tumor volume) (NCI-H82 tumor): significantly inhibit | inhibitory effect on subcutaneous tumor (tumor volume) (CFPAC-1 tumor): no significant inhibitory effect
